Numbers after ± are expanded uncertainties.
Assays:
[1] = xn = mol fraction of the nth substance listed; settings: 298.15 K; 101.3 kPa; Liquid; Capillary tube (Ostwald / Ubbelohde) method; x1 = 0.66
[2] = 298.15 K; 100 kPa; Liquid; Capillary tube (Ostwald / Ubbelohde) method

viscosity [1]	viscosity [2]	SMILES
20.05 ± 0.84 mPa·s		OC1COCOC1 [1,3-dioxan-5-ol] + OCC1COCO1
	10.06 ± 0.42 mPa·s	CC1(C)OCC(CO)O1 (stereo not drawn) [2,2-dimethyl-1,3-dioxolane-4-methanol]
	1200 ± 97 mPa·s	OCC(O)CO [glycerol]

From the NIST ThermoML archive (doi:10.1021/acs.jced.8b01042)
